Patent US4110327A, “2,3 Diketo-piperazinocarbonylamino alkanoic acids and derivatives” (Toyama Chemical Co., Ltd., priority 1974, dated 1978)
≈ marks a conversion by molar mass, not a printed value.

Experiments:
Format in all cases: cell-based
[1] = tested on: Shigella flexneri; assay: MIC against clinical isolates; conditions: unit assumed
Protocol: (§1) The minimum inhibitory concentrations (MIC) was determined by the plate method disclosed in "Chemotherapy" (Japan), Vol. 16, (1968), pages 98 - 99. The culture medium used was a Heart infusion agar (pH 7.4). The number of the cells per plate used in the inoculum as 10^4 (10^6 cells/ml).
(§2) MIC was determined in the same manner as in the preceding paragraph (1).

[2] = tested on: Shigella sonnei; assay: MIC against clinical isolates; conditions: unit assumed
Protocol: as §1, §2

[3] = tested on: Salmonella typhi; assay: MIC against clinical isolates; conditions: unit assumed
[4] = tested on: Staphylococcus aureus; assay: MIC against clinical isolates; conditions: unit assumed
[5] = tested on: Salmonella typhi-murium; assay: MIC against clinical isolates; conditions: unit assumed
[6] = tested on: Pseudomonas aeruginosa; assay: MIC against clinical isolates; conditions: unit assumed
[7] = tested on: Escherichia coli; assay: MIC against clinical isolates; conditions: unit assumed
[8] = tested on: Klebsiella pneumoniae; assay: MIC against standard strain, plate method; conditions: unit assumed
Protocol: as §1

[9] = tested on: Escherichia coli NIHJ; assay: MIC against standard strain, plate method; conditions: unit assumed
Protocol: as §1

[10] = tested on: Staphylococcus aureus 209p; assay: MIC against standard strain, plate method; conditions: unit assumed
Protocol: as §1

[11] = tested on: Pseudomonas aeruginosa I.F.O.; assay: MIC against standard strain, plate method; conditions: unit assumed
Protocol: as §1

[12] = tested on: Proteus vulgaris 3027; assay: MIC against standard strain, plate method; conditions: Proteus vulgaris 3027, standard strain; unit assumed
Protocol: as §1

[13] = tested on: Klebsiella pneumoniae; assay: MIC against clinical isolates; conditions: unit assumed

CCCCCCN1CCN(C(=O)N[C@@H](C(=O)N[C@@H]2C(=O)N3[C@@H]2SC(C)(C)[C@@H]3C(=O)O)c2ccccc2)C(=O)C1 [compound 13]
MIC ([1]; clinical isolate JS 11215): 12.5 µg/mL (≈ 22.3 µM)
MIC ([1]; clinical isolate JS 11839): 1.57 µg/mL (≈ 2.81 µM)
MIC ([2]; clinical isolate JS 11232): 12.5 µg/mL (≈ 22.3 µM)
MIC ([3]; clinical isolate SL 819): 6.25 µg/mL (≈ 11.2 µM)
MIC ([3]; clinical isolate SL 2169): 3.13 µg/mL (≈ 5.59 µM)
MIC ([4]; clinical isolate F-1): 12.5 µg/mL (≈ 22.3 µM)
MIC ([4]; clinical isolate F-2): 1.57 µg/mL (≈ 2.81 µM)
MIC ([4]; clinical isolate F-5): 200 µg/mL (≈ 357 µM)
MIC ([4]; clinical isolate MS 8619): 0.79 µg/mL (≈ 1.41 µM)
MIC ([5]; clinical isolate SL 858): 0.79 µg/mL (≈ 1.41 µM)
MIC ([5]; clinical isolate SL 2136): 200 µg/mL (≈ 357 µM)
MIC ([6]; clinical isolate GN 82): 50 µg/mL (≈ 89.3 µM)
MIC ([6]; clinical isolate GN 163): 25 µg/mL (≈ 44.7 µM)
MIC ([6]; clinical isolate GN 221): 50 µg/mL (≈ 89.3 µM)
MIC ([6]; clinical isolate GN 376): 50 µg/mL (≈ 89.3 µM)
MIC ([6]; clinical isolate GN 383): 50 µg/mL (≈ 89.3 µM)
MIC ([6]; clinical isolate GN 1035): 50 µg/mL (≈ 89.3 µM)
MIC ([6]; clinical isolate GN 1091): 25 µg/mL (≈ 44.7 µM)
MIC ([6]; clinical isolate GN 2565): 50 µg/mL (≈ 89.3 µM)
MIC ([6]; clinical isolate GN 2987): 12.5 µg/mL (≈ 22.3 µM)
MIC ([6]; clinical isolate GN (number not given; Table 5-3)): 50 µg/mL (≈ 89.3 µM)
MIC ([6]; clinical isolate S-1): 50 µg/mL (≈ 89.3 µM)
MIC ([6]; clinical isolate S-2): 50 µg/mL (≈ 89.3 µM)
MIC ([6]; clinical isolate S-3): 100 µg/mL (≈ 179 µM)
MIC ([6]; clinical isolate S-4): 50 µg/mL (≈ 89.3 µM)
MIC ([7]; clinical isolate GN 3465): 25 µg/mL (≈ 44.7 µM)
MIC ([7]; clinical isolate K-3): 100 µg/mL (≈ 179 µM)
MIC [8]: < 1.57 µg/mL
MIC [9]: < 1.57 µg/mL
MIC [10]: < 1.57 µg/mL
MIC [11]: 25 µg/mL (≈ 44.7 µM)
MIC [12]: < 1.57 µg/mL
MIC ([13]; clinical isolate GN 917): 12.5 µg/mL (≈ 22.3 µM)
MIC ([13]; clinical isolate GN 4081): 25 µg/mL (≈ 44.7 µM)
MIC ([13]; clinical isolate GN 4117): 25 µg/mL (≈ 44.7 µM)

CC(=O)OCC1=C(C(=O)O)N2C(=O)[C@@H](NC(=O)Cc3cccs3)[C@H]2SC1 [Sodium Cephalothin, SodiumCephalothin, reference compound]
MIC ([4]; clinical isolate F-1): < 0.4 µg/mL
MIC ([4]; clinical isolate F-2): < 0.4 µg/mL
MIC ([4]; clinical isolate F-3): < 0.4 µg/mL
MIC ([4]; clinical isolate F-4): < 0.4 µg/mL
MIC ([4]; clinical isolate F-5): 1.56 µg/mL
MIC ([4]; clinical isolate MS 8588): < 0.4 µg/mL
MIC ([4]; clinical isolate MS 8596): < 0.4 µg/mL
MIC ([4]; clinical isolate MS 8619): < 0.4 µg/mL
MIC ([4]; clinical isolate MS 8684): < 0.4 µg/mL
MIC ([4]; clinical isolate MS 8713): < 0.4 µg/mL
MIC ([6]; clinical isolate GN 82): > 200 µg/mL
MIC ([6]; clinical isolate GN 163): > 200 µg/mL
MIC ([6]; clinical isolate GN 221): > 200 µg/mL
MIC ([6]; clinical isolate GN 244): > 200 µg/mL
MIC ([6]; clinical isolate GN 376): > 200 µg/mL
MIC ([6]; clinical isolate GN 383): > 200 µg/mL
MIC ([6]; clinical isolate GN 1035): > 200 µg/mL
MIC ([6]; clinical isolate GN 1091): > 200 µg/mL
MIC ([6]; clinical isolate GN 2565): > 200 µg/mL
MIC ([6]; clinical isolate GN 2987): > 200 µg/mL
MIC ([6]; clinical isolate S-1): > 200 µg/mL
MIC ([6]; clinical isolate S-2): > 200 µg/mL
MIC ([6]; clinical isolate S-3): > 200 µg/mL
MIC ([6]; clinical isolate S-4): > 200 µg/mL
MIC ([7]; clinical isolate GN 3435): 6.25 µg/mL
MIC ([7]; clinical isolate GN 3452): 12.5 µg/mL
MIC ([7]; clinical isolate GN 3465): 25 µg/mL
MIC ([7]; clinical isolate GN 3481): 12.5 µg/mL
MIC ([7]; clinical isolate GN 3611): 50 µg/mL
MIC ([7]; clinical isolate K-1): 6.25 µg/mL
MIC ([7]; clinical isolate K-2): 6.25 µg/mL
MIC ([7]; clinical isolate K-3): 100 µg/mL
MIC ([7]; clinical isolate K-4): 25 µg/mL
MIC [8]: 100 µg/mL
MIC [9]: < 1.57 µg/mL
MIC [10]: < 1.57 µg/mL
MIC [11]: > 200 µg/mL
MIC [12]: < 1.57 µg/mL
MIC ([13]; clinical isolate GN 917): 3.13 µg/mL
MIC ([13]; clinical isolate GN 4081): 12.5 µg/mL
MIC ([13]; clinical isolate GN 4117): 6.25 µg/mL

CC1(C)S[C@@H]2[C@H](NC(=O)C(c3ccccc3)S(=O)(=O)O)C(=O)N2[C@H]1C(=O)O (stereo partly drawn) [Sodium Sulbenicillum, reference compound]
MIC ([1]; clinical isolate JS 11215): > 200 µg/mL
MIC ([1]; clinical isolate JS 11839): 12.5 µg/mL
MIC ([2]; clinical isolate JS 11232): > 200 µg/mL
MIC ([2]; clinical isolate JS 11755): > 200 µg/mL
MIC ([3]; clinical isolate SL 819): 6.25 µg/mL
MIC ([3]; clinical isolate SL 2169): 1.57 µg/mL
MIC ([5]; clinical isolate SL 858): 25 µg/mL
MIC ([5]; clinical isolate SL 2136): > 200 µg/mL

CN1CCN(C(=O)N[C@@H](C(=O)N[C@@H]2C(=O)N3C(C(=O)[O-])=C(C[n+]4ccccc4)CS[C@H]23)c2ccccc2)C(=O)C1=O [compound 68]
MIC ([4]; clinical isolate F-1): 1.56 µg/mL (≈ 2.7 µM)
MIC ([4]; clinical isolate F-2): 1.56 µg/mL (≈ 2.7 µM)
MIC ([4]; clinical isolate F-3): 0.78 µg/mL (≈ 1.35 µM)
MIC ([4]; clinical isolate F-4): 6.25 µg/mL (≈ 10.8 µM)
MIC ([4]; clinical isolate F-5): 0.78 µg/mL (≈ 1.35 µM)
MIC ([4]; clinical isolate MS 8588): 1.56 µg/mL (≈ 2.7 µM)
MIC ([4]; clinical isolate MS 8596): 1.56 µg/mL (≈ 2.7 µM)
MIC ([4]; clinical isolate MS 8619): 0.78 µg/mL (≈ 1.35 µM)
MIC ([4]; clinical isolate MS 8684): 1.56 µg/mL (≈ 2.7 µM)
MIC ([4]; clinical isolate MS 8713): 3.13 µg/mL (≈ 5.41 µM)
MIC ([6]; clinical isolate GN 82): 6.25 µg/mL (≈ 10.8 µM)
MIC ([6]; clinical isolate GN 163): 12.5 µg/mL (≈ 21.6 µM)
MIC ([6]; clinical isolate GN 221): 3.13 µg/mL (≈ 5.41 µM)
MIC ([6]; clinical isolate GN 244): 25 µg/mL (≈ 43.2 µM)
MIC ([6]; clinical isolate GN 376): 12.5 µg/mL (≈ 21.6 µM)
MIC ([6]; clinical isolate GN 383): 12.5 µg/mL (≈ 21.6 µM)
MIC ([6]; clinical isolate GN 1035): 50 µg/mL (≈ 86.4 µM)
MIC ([6]; clinical isolate GN 1091): 12.5 µg/mL (≈ 21.6 µM)
MIC ([6]; clinical isolate GN 2565): 50 µg/mL (≈ 86.4 µM)
MIC ([6]; clinical isolate GN 2987): 12.5 µg/mL (≈ 21.6 µM)
MIC ([6]; clinical isolate S-1): 25 µg/mL (≈ 43.2 µM)
MIC ([6]; clinical isolate S-2): 25 µg/mL (≈ 43.2 µM)
MIC ([6]; clinical isolate S-3): 25 µg/mL (≈ 43.2 µM)
MIC ([6]; clinical isolate S-4): 25 µg/mL (≈ 43.2 µM)
MIC [8]: < 0.79 µg/mL
MIC [9]: < 0.79 µg/mL
MIC [10]: 1.57 µg/mL (≈ 2.71 µM)
MIC [11]: 12.5 µg/mL (≈ 21.6 µM)
MIC [12]: 1.57 µg/mL (≈ 2.71 µM)
MIC ([13]; clinical isolate GN 917): 1.56 µg/mL (≈ 2.7 µM)
